Common to all, as to type: in vivo
The subject of assay [1] is poinsettia, wild (wild poinsettia, Euphorbia heterophylla). Briefly: Test F pre-/postemergence: poinsettia, wild. The source says: (§1) Seeds of plant species selected from corn (Zea mays), soybean (Glycine max), velvetleaf (Abutilon theophrasti), lambsquarters (Chenopodium album), poinsettia, wild (wild poinsettia, Euphorbia heterophylla), pigweed, palmer (palmer pigweed, Amaranthus palmeri), waterhemp (common waterhemp, Amaranthus rudis), surinam grass (Brachiaria decumbens), crabgrass, Brazil (Brazilian crabgrass, Digitaria horizontalis), panicum, fall (fall panicum Panicum dichotomiflorum), crabgrass, large (large crabgrass, Digitaria sanguinalis), foxtail, giant (giant foxtail, Setaria faberii), foxtail, green (green foxtail Setaria viridis), goosegrass (Eleusine indica), ragweed (common ragweed, Ambrosia elatior), barnyardgrass (Echinochloa crus-galli), sandbur (southern sandbur, Cenchrus echinatus), arrowleaf sida (Sida rhombifolia), ryegrass, Italian (Italian ryegrass, Lolium multiflorum), dayflower, VA (Virginia (VA) dayflower, Commelina virginica), field bindweed (Convolvulus arvensis), cocklebur (common cocklebur, Xanthium strumarium), morningglory (Ipomoea coccinea), nightshade (eastern black nightshade, Solanum ptycanthum), kochia (Kochia scoparia), nutsedge, yellow (yellow nutsedge, Cyperus esculentus), johnsongrass (Sorghum halepense), smartweed (ladysthumb smartweed, Polygonum persicaria), and beggarticks (hairy beggarticks, Bidens pilosa), were planted into a silt loam soil and treated preemergence with test chemicals formulated in a non-phytotoxic solvent mixture which included a surfactant. At the same time, plants selected from these crop and weed species and also pigweed (Amaranthus retroflexus), waterhemp_RES1 (ALS/Triazine resistant common waterhemp, Amaranthus rudis) and waterhemp_RES2 (ALS/HPPD resistant common waterhemp, Amaranthus rudis) were planted in pots containing a planting medium comprising spaghnum peat moss, vermiculite, wetting agent and starter nutrients treated with postemergence applications of some of the test chemicals formulated in the same manner. Plants ranged in height from 2 to 18 cm for postemergence treatments (1- to 4-leaf stage).
(§2) Treated plants and controls were maintained in a greenhouse for 14 to 21 days, after which time all species were compared to controls and visually evaluated. Plant response ratings, summarized in Table E, are based on a scale of 0 to 100 where 0 is no effect and 100 is complete control. A dash (-) response means no test result.

The subject of assay [2] is waterhemp (common waterhemp, Amaranthus rudis). Kind of assay: Test F pre-/postemergence: waterhemp.
Excerpt: as §1, §2

Assay [3] has as its system foxtail, green (green foxtail Setaria viridis). Kind of assay: Test F pre-/postemergence: foxtail, green. Conditions: Preemergence.
Excerpt: as §1, §2

Assay [4] deals with nutsedge, yellow (yellow nutsedge, Cyperus esculentus). Kind of assay: Test F pre-/postemergence: nutsedge, yellow. Conditions: Preemergence.
Excerpt: as §1, §2

Assay [5] deals with nightshade (eastern black nightshade, Solanum ptycanthum). Kind of assay: Test E pre-/postemergence: nightshade. Conditions: Preemergence, scale 0 to 100.
Excerpt: Seeds of plant species selected from corn (Zea mays), soybean (Glycine max), velvetleaf (Abutilon theophrasti), lambsquarters (Chenopodium album), poinsettia, wild (wild poinsettia, Euphorbia heterophylla), pigweed, palmer (palmer pigweed, Amaranthus palmeri), waterhemp (common waterhemp, Amaranthus rudis), smartweed (ladysthumb smartweed, Polygonum persicaria), surinam grass (Brachiaria decumbens), crabgrass, large (large crabgrass, Digitaria sanguinalis), crabgrass, Brazil (Brazilian crabgrass, Digitaria horizontalis), panicum, fall (fall panicum, Panicum dichotomiflorum), foxtail, giant (giant foxtail, Setaria faberii), foxtail, green (green foxtail, Setaria viridis), goosegrass (Eleusine indica), johnsongrass (Sorghum halepense), ragweed (common ragweed, Ambrosia elation), barnyardgrass (Echinochloa crus-galli), sandbur (southern sandbur, Cenchrus echinatus), arrowleaf sida (Sida rhombifolia), ryegrass, Italian (Italian ryegrass, Lolium multiflorum), dayflower, (VA) (Virginia dayflower, Commelina virginica), field bindweed (Convolvulus arvensis), cocklebur (common cocklebur, Xanthium strumarium), morningglory (Ipomoea coccinea), nightshade (eastern black nightshade, Solanum ptycanthum), kochia (Kochia scoparia), nutsedge, yellow (yellow nutsedge, Cyperus esculentus) and beggarticks (hairy beggarticks, Bidens pilosa) were planted into a silt loam soil and treated preemergence with test chemicals formulated in a non-phytotoxic solvent mixture which included a surfactant. At the same time, plants selected from these crop and weed species were planted in pots containing a growing medium comprising spaghnum peat moss, vermiculite, wetting agent and starter nutrients and treated with postemergence applications of some of the test chemicals formulated in the same manner. Plants ranged in height from 2 to 18 cm for postemergence treatments (1- to 4-leaf stage).
as §2

Another assay relates to Oilseed Rape. Briefly: Test C pre-/postemergence: oilseed rape. The text has this: Seeds of plant species selected from blackgrass (Alopecurus myosuroides), bromegrass, downy (downy bromegrass, Bromus tectorum), foxtail, green (green foxtail, Setaria viridis), ryegrass, Italian (Italian ryegrass, Lolium multiflorum), winter wheat (Triticum aestivum), wild oat (Avena fatua), galium (catchweed bedstraw, Galium aparine), bermudagrass (Cynodon dactylon), surinam grass (Brachiaria decumbens), cocklebur (common cocklebur, Xanthium strumarium), corn (Zea mays), large crabgrass (Digitaria sanguinalis), woolly cupgrass (Eriochloa villosa), foxtail, giant (giant foxtail, Setaria faberii), goosegrass (Eleusine indica), johnsongrass (Sorghum halepense), kochia (Kochia scoparia), lambsquarters (Chenopodium album), morningglory (Ipomoea coccinea), nightshade (eastern black nightshade, Solanum ptycanthum), nutsedge, yellow (yellow nutsedge, Cyperus esculentus), pigweed (Amaranthus retroflexus), ragweed (common ragweed, Ambrosia elation), soybean (Glycine max), common (oilseed) sunflower (Helianthus annuus), Russian thistle (Salsola kali) and velvetleaf (Abutilon theophrasti) were planted into a blend of loam soil and sand and treated preemergence with test chemicals formulated in a non-phytotoxic solvent mixture which included a surfactant.
At the same time, plants selected from these crop and weed species and also barley (winter barley, Hordeum vulgare), canarygrass (Phalaris minor), chickweed (common chickweed, Stellaria media) windgrass (Apera spica-venti) and deadnettle (henbit deadnettle, Lamium amplexicaule) were planted in pots containing Redi-Earth® planting medium (Scotts Company, 14111 Scottslawn Road, Marysville, Ohio 43041) comprising spaghnum peat moss, vermiculite, wetting agent and starter nutrients and treated with postemergence applications of test chemicals formulated in the same manner. Plants ranged in height from 2 to 18 cm (1- to 4-leaf stage) for postemergence treatments.
Treated plants and controls were maintained in a greenhouse for 13 to 15 days, after which time all species were compared to controls and visually evaluated. Plant response ratings, summarized in Table C, are based on a scale of 0 to 100 where 0 is no effect and 100 is complete control. A dash (-) response means no test result.

Where [6] appears, read: Preemergence, 16 g ai/ha, scale 0 to 100 (0 no effect, 100 complete control).
The mark [7] stands for this setting: Preemergence, 31 g ai/ha, scale 0 to 100 (0 no effect, 100 complete control).
Setting [8] is: Preemergence, 125 g ai/ha, scale 0 to 100.
[9] abbreviates: 16 g ai/ha, scale 0 to 100 (0 no effect, 100 complete control).
The mark [10] stands for this setting: 31 g ai/ha, scale 0 to 100 (0 no effect, 100 complete control).
The mark [11] stands for this setting: Postemergence, 4 g ai/ha, scale 0 to 100.
Setting [12] is: Postemergence, 8 g ai/ha, scale 0 to 100.
Where [13] appears, read: Postemergence, 16 g ai/ha, scale 0 to 100.
Where [14] appears, read: Postemergence, 31 g ai/ha, scale 0 to 100.
[15] abbreviates: Postemergence, 62 g ai/ha, scale 0 to 100.
The mark [16] stands for this setting: Preemergence, 4 g ai/ha, scale 0 to 100, 0 no effect, 100 complete control.
The mark [17] stands for this setting: Preemergence, 8 g ai/ha, scale 0 to 100, 0 no effect, 100 complete control.
Setting [18] is: 4 g ai/ha, scale 0 to 100, 0 no effect, 100 complete control.
Where [19] appears, read: 8 g ai/ha, scale 0 to 100, 0 no effect, 100 complete control.
[20] abbreviates: Preemergence, 250 g ai/ha, scale 0 to 100, 0 no effect, 100 complete control.
Where [21] appears, read: Postemergence, 31 g ai/ha, scale 0 to 100 (0 no effect, 100 complete control).

Each structure is given as a SMILES string.

In the case of `Fc1ccc(-n2nc(Cc3ccnc(C(F)(F)F)c3)c(OCC(F)(F)F)n2)cc1` [Compound 142], the “Plant response rating, Poinsettia, Wild” value in assay [1] (setting [6]) is reported as 0; in assay [1] (setting [7]), 10; in assay [1] (setting [8]), 70. In addition, the “Plant response rating, Waterhemp” value is given as 98 in assay [2] (setting [6]), 98 in assay [2] (setting [7]) and 100 in assay [2] (setting [8]). Besides, the “Plant response rating, Foxtail, Green” value in assay [3] (setting [9]) is given as 20; in assay [3] (setting [10]), 75; in assay [3] (62 g ai/ha, scale 0 to 100), 98; in assay [3] (125 g ai/ha, scale 0 to 100), 100. The “Plant response rating, Nutsedge, Yellow” value is given as 0 in assay [4] (setting [9]); 0 in assay [4] (setting [10]); 0 in assay [4] (125 g ai/ha, scale 0 to 100).

For `Cc1nn(-c2ccc(F)cc2)nc1Cc1ccnc(C(F)(F)F)c1` [Compound 16, 4-[[2-(4-fluorophenyl)-5-methyl-2H-1,2,3-triazol-4-yl]methyl]-2-(trifluoromethyl)pyridine], the “Plant response rating: Nightshade” value in assay [5] (8 g ai/ha) worked out at 0; in assay [5] (16 g ai/ha), 0; in assay [5] (31 g ai/ha), 50; in assay [5] (62 g ai/ha), 100; in assay [5] (125 g ai/ha), 100.

As to `Cc1nn(-c2ccc(C(F)(F)F)c(F)c2)nc1Cc1ccnc(C(F)(F)F)c1` [Compound 162], the “Plant response rating, Poinsettia, Wild” value in assay [1] (setting [11]) was 15; in assay [1] (setting [12]), 30; in assay [1] (setting [13]) it was 60; in assay [1] (setting [14]), 75; in assay [1] (setting [15]), 80; in assay [1] (setting [16]) it was 0. The “Plant response rating, Poinsettia, Wild” value in assay [1] (setting [17]) is 0; in assay [1] (setting [6]) it was 0; in assay [1] (setting [7]), 10. The “Plant response rating, Waterhemp” value was determined as 80 in assay [2] (setting [11]); 90 in assay [2] (setting [12]); 90 in assay [2] (setting [13]); 95 in assay [2] (setting [14]); 95 in assay [2] (setting [15]); 50 in assay [2] (setting [16]). The “Plant response rating, Waterhemp” value was found to be 85 in assay [2] (setting [17]), 90 in assay [2] (setting [6]) and 100 in assay [2] (setting [7]). Also, the “Plant response rating, Foxtail, Green” value is listed as 0 in assay [3] (setting [18]); 15 in assay [3] (setting [19]); 80 in assay [3] (setting [9]); 100 in assay [3] (setting [10]); 100 in assay [3] (62 g ai/ha, scale 0 to 100). In addition, the “Plant response rating, Nutsedge, Yellow” value in assay [4] (setting [18]) was determined as 0; in assay [4] (setting [19]) it was 0; in assay [4] (setting [9]), 35; in assay [4] (setting [10]), 35. For the same compound, the “Plant response rating, Oilseed Rape” value with Oilseed Rape (setting [20]) came to 100.

`CCc1nn(-c2ccc(F)cc2)nc1Oc1ccnc(C(F)(F)F)c1` [Compound 166]: the figures for the “Plant response rating, Oilseed Rape” value in the assay with Oilseed Rape (setting [21]) and with Oilseed Rape (setting [20]) were 5 and 100, respectively.

Take `Cc1nn(-c2ccc(F)cc2)nc1Oc1ccnc(C(F)(F)F)c1` [Compound 129, 4-[[2-(4-fluorophenyl)-5-methyl-2H-1,2,3-triazol-4-yl]oxy]-2-(trifluoromethyl)pyridine]: the “Plant response rating: Nightshade” value in assay [5] (8 g ai/ha) is 0; in assay [5] (16 g ai/ha), 0; in assay [5] (31 g ai/ha), 0; in assay [5] (62 g ai/ha), 50; in assay [5] (125 g ai/ha), 60.

Take `CCCc1nn(-c2ccc(C(F)(F)F)c(F)c2)nc1Oc1ccnc(C(F)(F)F)c1` [Compound 185]: the figures for the “Plant response rating, Oilseed Rape” value in the assay on Oilseed Rape (setting [21]) and with Oilseed Rape (setting [20]) were 10 and 100, respectively.

Consider `Cc1nn(-c2ccc(C(F)(F)F)cc2)nc1Cc1ccnc(C(F)(F)F)c1` [Compound 47, 4-[[5-methyl-2-[4-(trifluoromethyl)phenyl]-2H-1,2,3-triazol-4-yl]methyl]-2-(trifluoromethyl)pyridine], for which the “Plant response rating: Nightshade” value is on record as 75 in assay [5] (31 g ai/ha), 98 in assay [5] (62 g ai/ha), 98 in assay [5] (125 g ai/ha) and 98 in assay [5] (250 g ai/ha).

With `Cc1nn(-c2ccc(F)c(F)c2)nc1Oc1ccnc(C(F)(F)F)c1` [Compound 145], the “Plant response rating, Waterhemp” value in assay [2] (setting [12]) worked out at 90; in assay [2] (setting [13]) it was 90; in assay [2] (setting [14]), 95; in assay [2] (setting [15]), 95; in assay [2] (Postemergence, 125 g ai/ha, scale 0 to 100) it was 95.

(Values after patent publication US9302999B2, “Substituted triazoles as herbicides” (E. I. DU PONT DE NEMOURS AND COMPANY, priority 2012, dated 2016).)
